Measured values: patent US8304422B2, “Compositions and methods for inhibition of the JAK pathway” (Rigel Pharmaceuticals, Inc., priority 2007, dated 2012)

System: BaF3 V617F cells; UKE-1
Assay: Proliferation Assay (Cell Titer-Glo; Example 7)
Assay type: cell-based
Conditions: proliferation 72 hours, inhibit JAK2 activity, cell line (BaF3 V617F or UKE-1) not stated
In short: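 BaF3 V617F cells (RPMI, 10% FBS) and UKE-1 cells (Iscove's DMEM, 10% FBS, 10% equine serum, 1 uM hydrocortisone) were exposed to 3-fold serially diluted compound in duplicate for 72 hours at 37 °C. Viable cell number quantified by Cell Titer-Glo luminescence; IC50 reported.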

Row | IC50 | Molecule
1 | 398 nM | CCOc1c(C)cc(Nc2ncc(Cl)c(Nc3ccc(CNS(=O)(=O)C4CC4)cc3C)n2)cc1C [II-151, 5-Chloro-N2-(3,5-dimethyl-4-ethoxyphenyl)-N4-[2-methyl-4-(N-cyclopropylsulfonylamino)methylphenyl]-2,4-pyrimidinediamine]
2 | 149 nM | Cc1cc(CNS(=O)(=O)C2CC2)ccc1Nc1nc(NC2=CC(C)C(C)(OCCN3CCOCC3)C=C2)ncc1C (centres unmarked) [II-161, N2-[3,4-Dimethyl-4-(2-(4-morpholinyl)ethoxy)phenyl]-5-methyl-N4-[2-methyl-4-(N-cyclopropylsulfonylamino)methylphenyl]-2,4-pyrimidinediamine]
3 | 1210 nM | CCS(=O)(=O)N1CCc2c(cccc2Nc2nc(Nc3cc(C)c(OC)c(C)c3)ncc2Cl)C1 [VI-4, 5-Chloro-N2-(3,5-dimethyl-4-methoxyphenyl)N4-[1,2,3,4-tetrahydro-2-(ethylsulfonyl)-5-isoquinolinyl]-2,4-pyrimidinediamine]
4 | 190 nM | CCOc1c(C)cc(Nc2ncc(Cl)c(Nc3ccc(CNS(=O)(=O)NC4CC4)cc3C)n2)cc1C [II-176, 5-Chloro-N2-(3,5-dimethyl-4-ethoxyphenyl)-N4-[2-methyl-4-((N-cyclopropylamino)sulfonylamino)methylphenyl]-2,4-pyrimidinediamine]
5 | 357 nM | Cc1cc(CNS(=O)(=O)C2CC2)ccc1Nc1nc(Nc2ccc(N3CCN(C)CC3)cc2)ncc1Cl [II-152, 5-Chloro-N4-[2-methyl-4-(N-cyclopropylsulfonylamino)methylphenyl]-N2-[4-(4-methyl-1-piperazinyl)phenyl]-2,4-pyrimidinediamine]
6 | 879 nM | O=S(=O)(NCc1ccc(Nc2nc(Nc3cc(C4CC4)n[nH]3)ncc2Cl)cc1)C1CC1 [VIII-12, 5-Chloro-N4-[4-(N-cyclopropylsulfonylamino)methylphenyl]-N2-[5-cyclopropylpyrazol-3-yl)-2,4-pyrimidinediamine]

The remaining lines, values behind:

Row | Molecule | IC50
7 | 5-Bromo-N4-[3-(N-tert-butylsulfonyl)phenyl]-N2-[4-(4-methylpiperazine)-phenyl]-2,4-pyrimidinediamine [I-18] | 832 nM
8 | CCNS(=O)(=O)NCc1ccc(Nc2nc(Nc3cc(C)c(OC)c(C)c3)ncc2Cl)cc1 [II-108, 5-chloro-N2-(3,5-Dimethyl-4-methoxyphenyl)-N4-[(4-(ethylamino)sulfonylamino)methylphenyl]-2,4-pyrimidinediamine] | 85 nM
9 | CCNS(=O)(=O)NCc1cccc(Nc2nc(Nc3cc(C)c(OC)c(C)c3)ncc2F)c1 [II-137, N2-(3,5-Dimethyl-4-methoxyphenyl)-N4-[(3-(ethylamino)sulfonylamino)methylphenyl]-5-fluoro-2,4-pyrimidinediamine] | 541 nM
10 | CN1CCN(c2ccc(Nc3ncc(Cl)c(Nc4ccc(CCNS(=O)(=O)C5CC5)cc4)n3)cc2)CC1 [II-51, 5-Chloro-N4[4-(N-cyclopropylsulfonylamino)ethylphenyl]-N2-[4-(4-methylpiperazino)phenyl]-2,4-pyrimidinediamine] | 1070 nM
11 | (1R)—N2-(3,5-Dichloro-4-methoxyphenyl))-5-methyl-N4-[1-(methylsulfonyl)aminoindan-6-yl]-2,4-pyrimidinediamine [V-13] | 19300 nM
12 | CCN1CCN(c2ccc(Nc3ncc(C)c(Nc4ccc(CNS(=O)(=O)N(C)C)cc4)n3)cc2)CC1 [II-107, N4-[(4-(Dimethylamino)sulfonylamino)methylphenyl]-5-methyl-N2-[4-(4-ethyl-1-piperazinyl)phenyl]-2,4-pyrimidinediamine] | 316 nM
13 | CCc1cnc(Nc2cc(C)c(OC)c(OC)c2)nc1Nc1ccc(CNS(=O)(=O)C2CC2)cc1 [II-82, N4-[4-(N-Cyclopropylsulfonylamino)methylphenyl]-N2-(3,4-dimethoxy-5-methylphenyl)-5-ethyl-2,4-pyrimidinediamine] | 797 nM
14 | 5-Chloro-N4-[4-(N-cyclopropylsulfonylamino)methylphenyl]-N2-[2,4-dimethyl-5-chlorophenyl]-2,4-pyrimidinediamine [II-213] | 2490 nM
